# Experimental data: patent US20250345318A1, “COMPOUND AND USE THEREOF IN PREVENTING OR TREATING RADIATION DAMAGE” (SIMCERE PHARMACEUTICAL CO., LTD., priority 2022, published 2025)
# How the values were obtained:
# BEAS-2B cells [1] = assay: ROS, SOD, CAT and MDA assays, BEAS-2B (Example 22); format: cell-based, human
# From the text: The large amount of reactive oxygen species (ROS) induced by X-ray and the sustained oxidative stress reaction may cause DNA damage. Superoxide dismutase (SOD) and catalase (CAT) exert antioxidant effects, and the lipid oxidation product malondialdehyde (MDA) and ROS can reflect the oxidative stress level in vivo. The intracellular ROS level was detected using the fluorescent probe DCFH-DA. […] The supernatant of BEAS-2B cells was extracted and subjected to an MDA assay and an activity assay for CAT and SOD.
# IEC-6 cells [2] = assay: Western blot of DNA repair and apoptosis proteins in irradiated IEC-6 cells (Example 14); format: cell-based
# BEAS-2B cells [3] = assay: Apoptosis (Hoechst 33342) and mitochondrial membrane potential (JC-1), BEAS-2B (Example 22); format: cell-based, human
# Protocol: (§1) Severe DSBs may cause apoptosis. SPCA-1 and BEAS-2B cells were plated and cultured for 24 h before they were treated with 10 μM JAC4 for 24 h and 4 Gy X-ray for 24 h. The cells were stained with Hoechst 33342 (see Hoechst staining for apoptosis detection in Example 13) to evaluate the effect of JAC4 in combination with radiation on apoptosis. […] The decrease in mitochondrial membrane potential (JC-1) is a marker event in the early stage of apoptosis. The mitochondrial membrane potential was measured using fluorescent probe JC-1. The red fluorescence indicates a high mitochondrial membrane potential leading to JC-1 aggregate formation, and the green fluorescence indicates the mitochondrial membrane potential depolarization. The fluorescence ratio of red to green reflects the mitochondrial membrane potential and the number of early apoptotic cells.
# SPCA-1 cells = assay: Apoptosis (Hoechst 33342) and mitochondrial membrane potential (JC-1), SPCA-1 (Example 22); format: cell-based, human
# Protocol: as §1
# C57BL/6 male mice [4] = assay: Body weight after abdominal X-ray irradiation 12 Gy (Example 9); format: in vivo; settings: JAC4 100 mg/kg oral + abdominal X-ray 12 Gy
# Protocol: CS7BL/6 male mice aged 10 weeks were divided into 3 groups, i.e., a vehicle control group, a vehicle+radiation group, and a JAC4+radiation group 8 days after radiation, with 6 mice in each group. JAC4 (100 mg/kg) or an equal volume of vehicle (polyethylene glycol:ethanol:physiological saline=47.5:7.5:50, v/v/v) was orally administered to the mice once daily for 7 days. After that, the mice were subjected to abdominal X-ray irradiation (12 Gy) and the JAC4 or vehicle treatment was continued for 4 days. The body weights of the mice before and after […] X-ray irradiation were recorded daily, and body weight curves were plotted.
# IEC-6 cells [5] = assay: γ-H2AX immunofluorescence in irradiated IEC-6 cells (Example 13); format: cell-based; settings: JAC4 + radiation
# Protocol: The cell immunofluorescent images of γ-H2AX in different treatment groups were recorded after the IEC-6 cells were irradiated, and the mean fluorescence intensity of individual cells (***p<0.001) was measured using Image J. The results are shown in FIG. 19.
# lung tissue = assay: JWA, γ-H2AX, p-p65 in lung tissue of xenograft mice (immunofluorescence, immunoblot) (Example 21); format: in vivo
# From the text: In order to verify the protection effect of JAC4 against X-ray-induced DNA damage in lung tissues, 3 mice were randomly selected from each group to provide the lung tissue for immunofluorescence staining, and proteins were extracted from the lung tissues of the other 3 mice for western immunoblot to detect the expression levels of JWA, γ-H2AX, and p-p65, thereby verifying the relation between the targets of JAC4 and the reduction of DNA damage and apoptotic damages in the lung tissues. The western blot procedures are detailed in Example 4, and the immunofluorescence staining procedures are as follows:
# 1. Dewaxing and hydration: Prepared paraffin sections were dewaxed in an oven at 60° C. for 2-3 h to ensure a tight attachment between the section and the slide; the sections were then dewaxed by soaking in xylene I, 30 min→xylene II, 30 min→xylene III, 30 min→absolute ethyl alcohol I, shaker, 5 min→absolute ethyl alcohol II, shaker, 5 min→95% ethyl alcohol, shaker, 5 min→85% ethyl alcohol, shaker, 5 min→75% ethyl alcohol, shaker, 5 min→PBS, shaker, 5 min×3.
# 2. Antigen retrieval: The washed sections were boiled in 500 mL of 1× antigen retrieval solution (20× sodium citrate buffer 25 mL, pH 6.0, diluted to 1× in 475 mL of PBS), then taken out 10 min after the solution started boiling, and cooled to room temperature.
# 3. Cleaning and blocking: The sections were washed with PBS for 5 min thrice on a shaker. Droplets on the sections were removed carefully without overdrying. The edges of the sections were marked with an immunofluorescent pen, and a blocking buffer (centrifuged at 12,000 g for 5 min) was dropwise added to completely cover the sections. The sections were blocked for 1 h at room temperature.
# 4. Cleaning and co-incubation with primary antibody: After removing the blocking buffer, the sections were washed with PBS for 5 min thrice on a shaker; the primary antibody (centrifuged at 6,000 g for 5 min) was added dropwise to cover the sections, and the sections were incubated into a humidified chamber overnight at 4° C.
# 5. Cleaning and co-incubation with secondary antibody: The sections were washed with PBS for 5 min thrice on a shaker before the fluorescent secondary antibody (centrifuged at 6,000 g for 5 min) was added dropwise away from light. The sections were incubated at room temperature for 1 h.
# 6. Cleaning, nucleus staining, and photographing: The whole procedure was performed away from light. The sections were washed with PBS for 5 min thrice on a shaker. An anti-fluorescence quenching blocker containing DAPI was added dropwise. The cover glass was mounted for sealing and slowly from one side to avoid bubbles. The sealed slices were incubated in a humidified chamber for 15 min and continuously photographed to give images under a laser confocal microscope.
# C57BL/6 male mice [6] = assay: Survival of mice after abdominal X-ray irradiation (Example 2); format: in vivo
# Protocol: C57BL/6 male mice (26.7±1.0 g in body weight) aged 10 weeks were divided into two groups of 10 mice each. After acclimating to the environment, JAC4 (100 mg/kg) or an equal volume of vehicle (polyethylene glycol:ethanol:physiological saline=47.5:7.5:50, v/v/v) was orally administered to the mice once daily for 7 consecutive days. After that, the mice were subjected to abdominal X-ray irradiation (12 Gy) and JAC4 or vehicle treatment was continued. After 3 days, the administration of JAC4 or vehicle was discontinued. The status was observed daily and the body weights of the mice were recorded.
# [7] = JAC4 1 μM or 10 μM 24 h + 12 Gy, vs control group
# [8] = JAC4+X-ray group relative to X-ray group
# [9] = JAC4 group relative to control group
structure (smiles),measurement,setting,value
c1ccc(CSc2nnc(C3COc4ccccc4O3)o2)nc1 (stereo not shown) [JAC4],CAT activity,BEAS-2B cells [1]; JAC4+X-ray group,3.56±0.02 U/mg
same,SOD activity,BEAS-2B cells [1]; JAC4+X-ray group,24.20±1.18 U/mg
same,oxidation product MDA level,BEAS-2B cells [1]; JAC4+X-ray group,31.35 ± 4.34 µM/mg
same,CAT activity,BEAS-2B cells [1]; JAC4 group,3.42±0.08 U/mg
same,SOD activity,BEAS-2B cells [1]; JAC4 group,28.67±1.36 U/mg
same,oxidation product MDA level,BEAS-2B cells [1]; JAC4 group,24.95 ± 1.63 µM/mg
same,ROS level,BEAS-2B cells [1]; JAC4 in combination with X-ray,significantly reduced
same,anti-apoptotic proteins (Bcl-2),IEC-6 cells [2]; [7],increases
same,"pro-apoptotic proteins (spliced PARP1, spliced Caspase-3, spliced Caspase-9, Bax)",IEC-6 cells [2]; [7],decreases
same,XRCC1 expression level,IEC-6 cells [2]; JAC4 treatment after radiation (small intestine tissue and IEC-6 cells),increased its expression level
same,apoptosis (Hoechst 33342),BEAS-2B cells [3]; 10 μM JAC4 24 h + 4 Gy X-ray 24 h,decreased the pro-apoptotic effect of X-ray
same,mitochondrial membrane potential (JC-1),BEAS-2B cells [3]; JAC4 in combination with X-ray,reversed the X-ray-induced decrease in mitochondrial membrane potential
same,apoptosis (Hoechst 33342),"SPCA-1 cells; SPCA-1, 10 μM JAC4 24 h + 4 Gy X-ray 24 h",increased the pro-apoptotic effect of X-ray
same,mitochondrial membrane potential (JC-1),"SPCA-1 cells; SPCA-1, JAC4 in combination with X-ray",aggravated the decrease in mitochondrial membrane potential
same,body weight curve,C57BL/6 male mice [4],consistently above that of the vehicle+radiation group
same,mean fluorescence intensity of γ-H2AX,IEC-6 cells [5],26.00±1.79
same,JWA protein level in lung tissue (immunoblot),lung tissue; [8],1.25 folds
same,p-p65 protein level in lung tissue (immunoblot),lung tissue; [8],0.61 folds
same,γ-H2AX protein level in lung tissue (immunoblot),lung tissue; [8],0.83 folds
same,"fluorescence intensities of γ-H2AX, TNF-α, and TGF-β1 in lung tissue","lung tissue; JAC4+X-ray group vs X-ray group, immunofluorescence",significantly decreased
same,JWA fluorescence intensity in lung tissue,"lung tissue; JAC4 and JAC4+X-ray groups vs control group, immunofluorescence",higher JWA fluorescence intensity as compared with the control group
same,JWA protein level in lung tissue (immunoblot),lung tissue; [9],4.23 folds
same,p-p65 protein level in lung tissue (immunoblot),lung tissue; [9],0.63 folds
same,γ-H2AX protein level in lung tissue (immunoblot),lung tissue; [9],0.91 folds
same,mean survival after radiation,"C57BL/6 male mice [6]; JAC4 100 mg/kg oral once daily, 7 days before to 3 days after abdominal X-ray 12 Gy, observation day 30",16.8 ± 9.0 days
same,number of mice died,"C57BL/6 male mice [6]; JAC4 100 mg/kg oral, ABI 12 Gy, 10 mice per group, day 15",4 mice
same,number of mice survived,"C57BL/6 male mice [6]; JAC4 100 mg/kg oral, ABI 12 Gy, 10 mice per group, day 15, when all vehicle mice had died",6 mice
same,weight loss after radiation,"C57BL/6 male mice [6]; JAC4 100 mg/kg oral, ABI 12 Gy, vs vehicle",slower
